What was measured:
[1] = system: iNOS (inducible nitric oxide synthase); test: iNOS Western blot and Griess nitrite assay in ConA activated macrophages; format: cell-based, murine; conditions: ConA induced
Experimental: To determine the anti-inflammatory potential of A-O complex, protein level of iNOS (inducible nitric oxide synthase) in cell lysates and nitrite level in cell culture supernatants were evaluated by Western blot and Griess assay respectively. iNOS antibody used was #2982 from Cell Signaling Technology. For determination of nitrite cell culture media and Griess reagent (5% phosphoric acid containing 0.1% NEDD, 1% sulfanilamide) were mixed and incubated in dark for 10 min at room temperature. The absorbance of the violet colored product and blank (cell culture media) was measured at 540 nm. The concentration of nitrite in the sample was determined from a sodium nitrite (NaNO2) standard curve.

[2] = system: ConA stimulated EOC20 microglia; test: F-actin staining and qPCR in ConA stimulated EOC20 microglia; format: cell-based
Experimental: To determine the immunomodulatory effect of A-O complex, serum starved macrophages were exposed to the complex. Macrophages (1×10^6 cells) were serum starved for 30 min after which cells were exposed to A-O complex. After 1 hour, cells were washed with 1×PBS (pH 7.4) and harvested using cell dissociation solution. Then the cells were suspended in ice cold staining buffer (100 μl) and centrifuged at 1000 rpm for 5 min at 4° C. The cells were resuspended in 100 μl ice cold staining buffer for 10 min at 2-8° C. and pellet resuspended in 50 μl staining media. To this 2 μl of Fc block or anti-mouse CD16/CD32 was added for 10 mins and washed with staining buffer. The cells were resuspended in 50 μl of staining buffer and incubated with fluorescent-tagged CD36 antibody (e-biosciences) for 25-30 min on ice. The excess stain was removed by washing and pelleting down using staining buffer thrice by spinning and removal of staining buffer. The cell suspension was fixed 1:1 ratio (staining buffer:fixative) and analysed within 48 h in ARIA3 DIVA software version 6.1. Further, expression of MHC-II, and CD-36, was also determined in the microglial cells via qPCR. For this RNA extraction was performed using RNA extraction kit from Qiagen according to the manufacturer's instruction. cDNA synthesis was performed using cDNA synthesis kit from Qiagen. To perform qPCR, 10 ng cDNA (per well) was amplified using the Light Cycler 480 Sybergreen I Master reagent (Roche Diagnostics, Indianapolis, Ind.) and primers (commercially purchased from SABiosciences, Qiagen) in the Light Cycler 480 (Roche Diagnostics, Switzerland) under following cycling conditions: 3 min at 95° C., 15 sec at 95° C., 20 sec at 60° C., 25 sec at 72° C. for 40 cycles. Following amplification, fold changes in gene expression versus β-actin (reference) analysis was determined using the 2^ΔΔCT(Livak) method.
To determine the immunomodulatory effect of A-O complex in microglia, EOC20 microglial cells from ATCC (CRL-2469) was employed. The cells were cultured in high glucose Dulbecco's […] Essential Media (DMEM) containing 4 mM L-glutamine, 10% fetal bovine serum (FBS) and 20% LADMAC conditioned media. LADMAC media was prepared by growing 80% confluent LADMAC cell line from ATCC (CRL-2420) in alpha-minimal essential media supplemented with 10% FBS for 5 days. The spent supernatant was centrifuged at 1000 rpm for 10 min and the supernatant was filtered as used as LADMAC media. To determine the morphological changes in microglia upon exposure to A-O complex, F-actin confocal microscopy was performed. […]
Next, immunomodulatory effect of A-O complex on activated microglial cells was determined. […] The immunomodulatory effect was assessed via F-actin staining and qPCR.

[3] = system: co-culture of osteoblast (MC3T3-E1) and osteoclast (from RAW264.7); test: Osteoblast-osteoclast co-culture, mRNA by Real Time PCR; format: cell-based, mouse; conditions: 24 hours of incubation, vs basal
Experimental: Effect of A-O complex on bone cells: To determine whether A-O complex modulated bone cells, A-O complex was added to a co-culture system of osteoblast and osteoclast. MC3T3-E1 sub-clone 4 (pre-osteoblast cell line derived from new born mouse calvaria purchased from American Type Culture Collection) were cultured in α-MEM (Invitrogen, USA) supplemented with 10% fetal bovine serum and 1% anti-anti (Invitrogen, USA). Osteoblasts within the 4th and 10th passages were used for this study. For cell culture experiments 2×10^6 cells were seeded in 60 mm Petri plates. To initiate differentiation, cells were treated with 10 mM β-glycerophosphate and 50 μg/ml ascorbic acid. Murine RAW264.7 (macrophage) cells were used for generating osteoclasts. The cells were maintained in RPMI 1640 media supplemented with glutamine (2 mM) and FBS (10%). No trypsination was performed and subculture was done using a cell scraper after cultures reached 65-70% confluency. For generation of osteoclasts from RAW264.7 cells, cells of density 12000 cells per cm^2 were stimulated with 25 ng per ml of RANKL (directly with seeding) for 72-96 hours after which large multinucleated cells are seen and confirmed using TRAP5b assay. […] Thereafter the co-culture was exposed to A-O complex and the mRNA levels of osteocalcin and IGF-1 were analyzed by Real Time PCR.

[4] = ConA stimulated microglia, qPCR

A-O complex: peptide complex of 100 μM Abeta1-42 (SEQ ID NO: 1) and 3 ng Glu-OC (SEQ ID NO: 2), incubated at 37° C. for 4 hours
iNOS protein expression ([1]; macrophage cell lysates, Western blot): reduces the iNOS expression
nitrite level in cell culture supernatants ([1]; macrophage cultures, Griess assay): reduction in the ConA induced nitrite levels
mRNA level of Cd11b [2, 4]: normalized
mRNA level of Cd36 [2, 4]: induced
mRNA level of Tnfa [2, 4]: normalized
microglia morphology (F-actin) ([2]; EOC20 microglia, ConA 30 mins then A-O complex 1 hour): presence of cells with ramified process
mRNA transcripts of IGF-1 [3]: significantly higher
mRNA transcripts of osteocalcin [3]: significantly higher
